Tested on: human peripheral blood leucocytes
Assay: Migration capability of neutrophils: fMLP in soft agar under hydrogel layer
Type: cell-based
Details: for Number of Cells in Hydrogel of the Invention: 37° C., 3 hours, 10^7 leucocytes applied; for Number of Cells in Soft Agar: microscopically observed
Method: Soft agar mediums (prepared by dissolving Nacalai Tesque's soft agar powder in a D′MEM (Dulbecco's Modification Eagle's Medium, by GIBCO, containing 10% FCS (Fetal Calf Serum)) having 0.6% of concentration and each containing 0 M, 10^−6 M, 10^−7 M or 10^−8 M of fMLP (N-formyl-methionyl-leucyl-phenylalanine, molecular weight 437.6, chemotactic peptide, produced by Sigma) were prepared at 42° C. Each medium was put into a polystyrene dish (mfd. by SOMILON) having a diameter of 35 mm in an amount of 1 ml (depth of medium, about 1 mm) each, and gelled therein at room temperature. The hydrogel-forming polymer (TGP-5) of the invention obtained in Production Example 7 was sterilized with EOG in the same manner as in Production Example 4. One g of the polymer was dissolved in 9 g of D′MEM medium at 4° C., and this was put on the above-mentioned soft agar gel in an amount of 0.5 ml (depth of the polymer solution, about 0.5 mm) each, and gelled at room temperature. The sol-gel transition temperature of the hydrogel was 18° C. On the hydrogel layer of the invention, a tissue culture insert (mfd. by NUNC) with a filter having a pore size of 8.0 μm was set, and 0.5 ml of a cell suspension containing 10^7 human peripheral blood leucocytes was put into the insert and set in an incubator at 37° C. This was statically set therein at 37° C. for 3 hours, and then the dish was taken out of the incubator. The dish was cooled on ice, the tissue culture insert was removed, and the hydrogel of the invention was converted into a sol state. The hydrogel of the invention that was liquid with cooling with ice was collected, diluted with physiological saline and centrifuged (3000 rpm, 5 minutes). The precipitated cell were re-suspended in 20 μl of physiological saline, and the number of the cell was counted to thereby determine the number of the neutrophils having moved into the hydrogel of the invention. After the hydrogel of the invention was removed, the number of the cell having moved into the soft agar was microscopically observed, and the result is shown in Table 1.

[1] = fMLP concentration in soft agar 10^−6 M
[2] = fMLP concentration in soft agar 10^−7 M
[3] = fMLP concentration in soft agar 10^−8 M

CSCC[C@H](NC=O)C(=O)N[C@@H](CC(C)C)C(=O)N[C@@H](Cc1ccccc1)C(=O)O [fMLP, N-formyl-methionyl-leucyl-phenylalanine]
Number of Cells in Hydrogel of the Invention [1]: 300
Number of Cells in Soft Agar [1]: numerous
Number of Cells in Hydrogel of the Invention [2]: 17,600
Number of Cells in Soft Agar [2]: many
Number of Cells in Hydrogel of the Invention [3]: 4,740
Number of Cells in Soft Agar [3]: a few
